Reference: patent publication EP1328811B1, “HCV MOSAIC ANTIGEN COMPOSITION” (MedMira Inc., priority 2000, dated 2005)

Test system: anti-HCV antibodies
Experiment: Immunofiltration dotting assay of individual peptide-carrier conjugates (epitope mapping, Example 4)
Type: binding, human
Conditions: for reactivity with HCV positive samples / reactivity with positive HCV samples: HCV positive specimens n=10; for reactivity with positive HCV samples: peptide conjugates, independently of the carrier used (BSA, HSA, KLH), peptide-carrier mass ratio 0.5; for reactivity with negative HCV samples: peptide-carrier conjugates, HCV negative specimens n=10
Source text: Several versions of antibody capture assay formats are available which differ mainly according to the type of solid supports employed and the detection technology used to determine the presence of immunological complexes formed by antigen-antibody recognition and binding. A commercially available immunofiltration dotting assay procedure (MedMira Inc., Halifax, N.S.) was used to test for immunoreactivity of the peptide-carrier conjugates based on colloidal gold detection using a nitrocellulose membrane as a solid support and is described below.
The HCV positive/negative specimens used to evaluate the mosaic antigen composition were provided by Dr. Spencer Lee (Director of Virology/Immunology, Microbiology Division, Department of Pathology and Laboratory Medicine) of the Queen Elizabeth II Health Sciences Center (Halifax, Nova Scotia). All specimens were tested with the Abbott's HCV test using the Axsym system platform. The Riba-II (Chiron) immunoblot assay was used as a confirmation test.
The maleimide-activated carrier molecules (KLH, BSA and HSA) were purchased from Pierce (Rockford, IL) and conjugated with cysteine containing peptides using a peptide-carrier mass ratio of 0.5 except mentioned otherwise.
Typically, the conjugates were passively adsorbed at a concentration of 1 mg/ml (bicarbonate buffer, 50 mM, pH 9.6) by applying one microliter of peptide-carrier conjugate on the nitrocellulose membrane. The antigen dotted membrane was air-dried. Before the test, the membrane was primed with 3 drops of washing buffer (Tris/phosphate/sodium chloride, pH 9.6 containing 0.25% Tween®20). The tests were performed as follows.
One drop of specimen serum was added to the membrane and after complete absorption of the sample, the membrane was washed with 4 drops of washing buffer. Four drops of protein A/colloidal gold solution (concentration corresponding to an optical density of 2 at 520 nm) was added to the membrane and the membrane was washed with 3 more drops of washing solution. The results were recorded visually within 5 minutes after completion of the test.
The identification of major linear epitopes was carried out using selected peptides corresponding to various regions of the HCV polyprotein and panels of well-characterized HCV positive and negative human sera. Additionally, a comparison of different carrier components was made based on a sensitivity/specificity assessment of various peptide-carrier conjugates.
Peptides were individually conjugated to three different carriers (BSA, HSA and KLH) and adsorbed passively on a nitrocellulose membrane support. Tests were performed by immunofiltration dotting assay format using a,commercially available flow-through assay platform (MedMira Inc., Halifax, N.S.).

| Sequence | reactivity with HCV positive samples (peptide conjugated with BSA) | reactivity with HCV positive samples (peptide conjugated with HSA) | reactivity with HCV positive samples (peptide conjugated with KLH) | reactivity with positive HCV samples | reactivity with negative HCV samples |
| --- | --- | --- | --- | --- | --- |
| ATRKTSERSQPRGRRQPI [MDL-5, HCV core region antigenic peptide] | reactive with most HCV positive samples | unreactive | reactive with most HCV positive samples |  |  |
| KTKRNTNRRPQDVKF [MDL-2, HCV core region antigenic peptide] |  |  |  | more consistent reactivity | No significant reactivity |
| GPRLGVRATRKTSERSQP [MDL-4, HCV core region antigenic peptide] | marginally reactive or unreactive | marginally reactive or unreactive | reactive with most HCV positive samples |  |  |
| MSTNPKPQRKTKRNTNRR [MDL-1, HCV core region antigenic peptide] |  |  |  | more consistent reactivity | No significant reactivity |
| PKARQPEGRAWAQPG [MDL-6] | reactive with most HCV positive samples | reactive with most HCV positive samples | poorly reactive |  |  |
| GQIVGGVYLLPRRGP [MDL-3, HCV core region antigenic peptide] |  |  |  | more consistent reactivity | No significant reactivity |
